This is an account of results in patent publication US11408900B2, “Secreted P-glycoprotein is a non-invasive biomarker of chronic rhinosinusitis” (Massachusetts Eye and Ear Infirmary, priority 2016, dated 2022).

The target of data set [1] is P-gp (Homo sapiens, UniProt P08183). The settings on record: cited from earlier work.
For data set [2], the system named is HSNECCs. The experiment in a line: Epithelial cytokine secretion (IL-6, IL-8, TSLP) by ELISA after exosome exposure with or without Zosuquidar. The settings on record: 0.625 μM Zosuquidar, CRSwNP relative to control. Format: cell-based, human. As to the method:
Control wells were those exposed to vehicle control alone. Following exposure, the media was collected from each well. Cytokine concentrations for TSLP (Thymic Stromal Derived Lymphopoietin), Interleukin (IL)-6, and IL-8 were determined by ELISA according to the manufactures guidelines (eBioscience, San Diego, Calif.). All secreted cytokine concentrations were normalized to total protein concentrations using the Micro BCA Protein Assay Kit (Pierce, Rockford, Ill.).
In general terms: In an ELISA, binding on a coated surface is turned into a signal by an enzyme label.

In data set [3] the test system is healthy patient derived epithelial cell cultures (HSNECCs). The experiment in a line: Calcein AM P-glycoprotein activity assay after recombinant P-gp exposure. Format: cell-based, human. The settings on record: 24 hours, n=7. As to the method:
(§1) HSNECCs from 7 control patients and 6 CRS patients were grown as previously described^8. Briefly, mucosal samples were washed and digested in Pronase for 90 minutes at 37° C. Cell suspensions were separated from particulate matter by centrifugation and resuspended in bronchial epithelial growth media (BEGM). Cells were plated for 2 hours on standard tissue culture plates to remove contaminating fibroblasts. Cells were then expanded for 3-5 days on human collagen type IV-coated (Collagen from human placenta, Bornstein and Traub Type IV, Sigma Aldrich, St. Louis, Mo.) 75 cm^2 dishes (Corning Life Sciences, Corning, N.Y.). […]
A calcein AM assay was performed to determine whether the interpolated P-gp was functional following 24 hours of recombinant P-gp exposure as described above. […] After 15 minutes, each well was washed 3 times with cold phosphate buffered saline and the calcein fluorescence within each well was quantified using a spectrophotometer (Molecular Devices SpectraMax M5, Sunnyvale, Calif.) at an excitation and emission wavelength of 494 nm and 517 nm, respectively. A decrease in fluorescence was considered an indication of increased P-gp function as previously described^4.

The test system is the same in data set [4]. The experiment in a line: Quantitative fluorescent immunocytochemistry for membranous P-gp (CTCF) after recombinant P-gp exposure. Format: cell-based, human. The following applies: 24 hours. As to the method:
as §1
Fluorescent staining intensity was quantified according to previously described techniques^9. Briefly, 20× fields were chosen and images were analyzed in Image J v1.49t. The cells and 3 background areas were circled in Image J using the free hand sections tool and the integrated density, area of selected cell, and mean fluorescence of the backgrounds were measured using the region of interest (ROI) manager. The corrected total cell fluorescence (CTCF) was calculated as the integrated density−(area of selected cell×mean fluorescence of background readings). […]

Chain of P-gp (P08183 whole entry): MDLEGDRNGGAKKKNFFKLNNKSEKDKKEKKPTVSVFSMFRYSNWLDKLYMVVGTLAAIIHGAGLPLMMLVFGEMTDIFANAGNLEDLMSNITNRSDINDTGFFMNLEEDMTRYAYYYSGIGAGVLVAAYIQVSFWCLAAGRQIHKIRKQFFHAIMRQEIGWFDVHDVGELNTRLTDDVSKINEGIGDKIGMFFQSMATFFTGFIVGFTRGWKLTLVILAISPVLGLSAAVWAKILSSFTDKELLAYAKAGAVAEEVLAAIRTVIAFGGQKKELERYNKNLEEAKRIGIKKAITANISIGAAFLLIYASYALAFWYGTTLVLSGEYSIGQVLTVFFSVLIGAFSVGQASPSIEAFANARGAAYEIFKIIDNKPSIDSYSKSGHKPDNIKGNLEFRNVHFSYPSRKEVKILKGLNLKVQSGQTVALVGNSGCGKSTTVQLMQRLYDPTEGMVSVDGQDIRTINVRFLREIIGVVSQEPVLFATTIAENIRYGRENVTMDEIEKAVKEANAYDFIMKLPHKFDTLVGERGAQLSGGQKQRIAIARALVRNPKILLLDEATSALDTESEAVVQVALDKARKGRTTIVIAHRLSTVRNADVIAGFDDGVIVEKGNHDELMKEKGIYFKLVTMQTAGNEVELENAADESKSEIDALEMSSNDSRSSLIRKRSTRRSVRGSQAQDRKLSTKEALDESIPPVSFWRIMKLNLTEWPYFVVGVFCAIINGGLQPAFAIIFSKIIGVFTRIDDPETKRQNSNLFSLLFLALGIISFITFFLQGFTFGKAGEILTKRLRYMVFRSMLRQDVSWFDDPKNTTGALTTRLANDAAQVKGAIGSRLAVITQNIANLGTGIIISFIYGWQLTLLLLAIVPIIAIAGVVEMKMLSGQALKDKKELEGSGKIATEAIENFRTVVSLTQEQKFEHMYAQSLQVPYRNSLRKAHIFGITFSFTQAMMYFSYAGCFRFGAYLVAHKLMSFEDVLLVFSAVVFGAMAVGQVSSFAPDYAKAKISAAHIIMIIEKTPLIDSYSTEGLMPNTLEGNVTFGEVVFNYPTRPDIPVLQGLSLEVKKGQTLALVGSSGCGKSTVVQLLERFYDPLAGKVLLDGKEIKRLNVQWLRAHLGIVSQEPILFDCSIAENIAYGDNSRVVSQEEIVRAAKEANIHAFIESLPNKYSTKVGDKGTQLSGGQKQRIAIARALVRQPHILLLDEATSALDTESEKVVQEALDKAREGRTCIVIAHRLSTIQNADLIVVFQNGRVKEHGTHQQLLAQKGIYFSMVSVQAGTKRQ

Regarding `CCOC/C=C/c1ccc(-c2nc(-c3ccc(NC(C)C)cc3)c(-c3ccc(NC(C)C)cc3)[nH]2)cc1` [OC144093, 4-[2-[4-[(E)-3-ethoxyprop-1-enyl]phenyl]-4-[4-(propan-2-ylamino)phenyl]-1H-imidazol-5-yl]-N-propan-2-ylaniline], the “potency relative to the first and second-generation inhibitors” value in data set [1] is recorded as “about 10 fold”.

For `COc1cc2c(cc1OC)CN(CCc1ccc(NC(=O)c3cc(OC)c(OC)cc3NC(=O)c3cnc4ccccc4c3)cc1)CC2` [XR9576, N-[2-[[4-[2-(6,7-Dimethoxy-3,4-dihydro-1H-isoquinolin-2-yl)ethyl]phenyl]carbamoyl]-4,5-dimethoxyphenyl]quinoline-3-carboxamide], in data set [1], the “potency relative to the first and second-generation inhibitors” value is “about 10 fold”.

With `Cl.Cl.Cl.O[C@@H](COc1cccc2ncccc12)CN1CCN([C@@H]2c3ccccc3[C@@H]3[C@H](c4ccccc42)C3(F)F)CC1` [Zosuquidar, (2R)-1-{4-[(1aR,6r,10bS)-1,1-Difluoro-1,1a,6,10b-tetrahydrodibenzo[a,e]cyclopropa[c]cyclohepten-6-yl]piperazin-1-yl}-3-(quinolin-5-yloxy)propan-2-ol,trihydrochloride], in data set [2], the “effect on exosome induced increase in IL-6 secretion” value is reported as “abrogated” and the “effect on exosome induced increase in IL-8 secretion” value is listed as “abrogated”.

With “recombinant human P-gp: recombinant human P-glycoprotein (USCN Life Sciences Inc.)”, the values for the mean calcein fluorescence in data set [3] (100 ng/mL dose) and in data set [3] (2000 ng/mL dose) were 123.11+/−42.16 and 82.03+/−43.69, respectively. Moreover, the “CTCF (corrected total cell fluorescence) of P-gp staining” value in data set [4] (2000 ng/mL recombinant human P-gp, n=7) is reported as 1.34+/−1.85. For the same molecule, in data set [4] (100-2000 ng/mL exogenous recombinant human P-gp), the “change in CTCF of P-gp staining” value was “dose dependent increase”.
